# Several values for one entry are separate records, joined by “and”; a condition that tells them apart may be missing. Equal values may be shown once.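 Step 1: Grow cells in 96-well plates. Step 2: Expose to compound for 48 hours at 5 concentrations. Step 3: Interpolate endpoints linearly; if unreached, use highest concentration. At the GI50, growth is halved. Definition used: TGI = concentration required for complete inhibition of growth.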
# Tests used:
# Test in all cases: NCI tumour cell line growth inhibition, 48 h
# DMS 114 small cell lung = system: DMS 114 small cell lung
# P388/ADR leukemia = system: P388/ADR leukemia
# HOP-18 NSCLC = system: HOP-18 NSCLC
# EKVX NSCLC = system: EKVX NSCLC
# XF 498 CNS = system: XF 498 CNS
# P388 leukemia = system: P388 leukemia
# M19-MEL melanoma = system: M19-MEL melanoma
# SF-539 CNS = system: SF-539 CNS
# SNB-78 CNS = system: SNB-78 CNS
# HT29 colon = system: HT29 colon
# 786-0 renal = system: 786-0 renal
# HOP-62 NSCLC = system: HOP-62 NSCLC
# OVCAR-8 ovarian = system: OVCAR-8 ovarian
# A498 renal = system: A498 renal
# NCI-H522 lung = system: NCI-H522 lung
# HS 578T breast = system: HS 578T breast
# T-47D breast = system: T-47D breast
# UO-31 renal = system: UO-31 renal
# UACC-257 melanoma = system: UACC-257 melanoma
# SK-MEL-2 melanoma = system: SK-MEL-2 melanoma
# SF-295 CNS = system: SF-295 CNS
# TK-10 renal = system: TK-10 renal
# UACC-62 melanoma = system: UACC-62 melanoma
# MOLT-4 leukemia = system: MOLT-4 leukemia
# SN12C renal = system: SN12C renal
# COLO 205 colon = system: COLO 205 colon
# HCC-2998 colon = system: HCC-2998 colon
# SNB-19 CNS = system: SNB-19 CNS
# SK-MEL-5 melanoma = system: SK-MEL-5 melanoma
# RXF-631 renal = system: RXF-631 renal
# A549 NSCLC = system: A549 NSCLC
# DMS 273 small cell lung = system: DMS 273 small cell lung
# DLD-1 colon = system: DLD-1 colon
# CCRF-CEM leukemia = system: CCRF-CEM leukemia
# BT-549 breast = system: BT-549 breast
# MDA-MB-231 breast = system: MDA-MB-231 breast
# SK-OV-3 ovarian = system: SK-OV-3 ovarian
# SK-MEL-28 melanoma = system: SK-MEL-28 melanoma
# KM12 colon = system: KM12 colon
# RPMI-8226 leukemia = system: RPMI-8226 leukemia
# HOP-92 NSCLC = system: HOP-92 NSCLC
# CAKI-1 renal = system: CAKI-1 renal
# IGROV1 ovarian = system: IGROV1 ovarian
# PC-3 prostate = system: PC-3 prostate
# NCI-H23 lung = system: NCI-H23 lung
# ACHN renal = system: ACHN renal
# LOX IMVI melanoma = system: LOX IMVI melanoma
# OVCAR-5 ovarian = system: OVCAR-5 ovarian
# NCI-H460 lung = system: NCI-H460 lung
# KM20L2 colon = system: KM20L2 colon
# OVCAR-3 ovarian = system: OVCAR-3 ovarian
# U251 CNS = system: U251 CNS
# MALME-3M melanoma = system: MALME-3M melanoma
# MDA-N = system: MDA-N
# K-562 leukemia = system: K-562 leukemia
# DU-145 prostate = system: DU-145 prostate
# M14 melanoma = system: M14 melanoma
# SW-620 colon = system: SW-620 colon
# SR leukemia = system: SR leukemia
# SF-268 CNS = system: SF-268 CNS
# LXFL 529 NSCLC = system: LXFL 529 NSCLC
# NCI-H226 lung = system: NCI-H226 lung
# HCT-15 colon = system: HCT-15 colon
# RXF 393 renal = system: RXF 393 renal
# HCT-116 colon = system: HCT-116 colon
# HL-60(TB) leukemia = system: HL-60(TB) leukemia
# OVCAR-4 ovarian = system: OVCAR-4 ovarian
# SNB-75 CNS = system: SNB-75 CNS
smiles,measurement,setting,value
Nc1ncn(C2OC(CO)C(O)C2O)c(=O)n1 (stereo not drawn),GI50,DMS 114 small cell lung,9.47 µM and 1.17 µM
same,GI50,P388/ADR leukemia,0.611 µM
same,TGI,P388/ADR leukemia,41.1 µM and 11.6 µM
same,TGI,HOP-18 NSCLC,250 µM and 125 µM
same,TGI,EKVX NSCLC,215 µM and > 72.8 µM and 26.5 µM
same,TGI,XF 498 CNS,61.2 µM and 11.4 µM
same,GI50,P388 leukemia,0.55 µM
same,TGI,P388 leukemia,36.7 µM and 7.61 µM
same,TGI,M19-MEL melanoma,> 250 µM and 28.4 µM
BrCC[N+]12CCCN1CCC2,TGI,SF-539 CNS,32.9 µM
same,TGI,SNB-78 CNS,37.5 µM
same,TGI,HT29 colon,38.2 µM
same,TGI,786-0 renal,22.3 µM
same,TGI,HOP-62 NSCLC,> 70.5 µM
same,TGI,OVCAR-8 ovarian,39.3 µM
same,TGI,A498 renal,> 66.2 µM
same,TGI,HOP-18 NSCLC,21.7 µM
same,TGI,NCI-H522 lung,1.71 µM
same,TGI,HS 578T breast,26.9 µM
same,TGI,T-47D breast,35.2 µM
same,TGI,UO-31 renal,39.2 µM
same,TGI,UACC-257 melanoma,37.2 µM
same,TGI,SK-MEL-2 melanoma,48.4 µM
same,TGI,SF-295 CNS,> 100 µM
same,TGI,TK-10 renal,27.9 µM
same,TGI,UACC-62 melanoma,20.5 µM
same,TGI,EKVX NSCLC,38 µM
same,TGI,MOLT-4 leukemia,12.9 µM
same,TGI,SN12C renal,29.3 µM
same,TGI,COLO 205 colon,10.5 µM
same,TGI,HCC-2998 colon,54.3 µM
same,TGI,SNB-19 CNS,> 77 µM
same,TGI,SK-MEL-5 melanoma,34.3 µM
same,TGI,RXF-631 renal,46.4 µM
same,TGI,A549 NSCLC,> 81.8 µM
same,TGI,DMS 273 small cell lung,37.1 µM
same,TGI,DLD-1 colon,14.1 µM
same,TGI,CCRF-CEM leukemia,4.87 µM
same,TGI,BT-549 breast,31.3 µM
same,TGI,MDA-MB-231 breast,34 µM
same,TGI,SK-OV-3 ovarian,> 93.3 µM
same,TGI,SK-MEL-28 melanoma,26.5 µM
same,TGI,KM12 colon,> 94.6 µM
same,TGI,RPMI-8226 leukemia,8.38 µM
same,TGI,HOP-92 NSCLC,13.7 µM
same,TGI,CAKI-1 renal,2.44 µM
same,TGI,IGROV1 ovarian,51.1 µM
same,TGI,PC-3 prostate,31.2 µM
same,TGI,NCI-H23 lung,36.6 µM
same,TGI,ACHN renal,14.3 µM
same,TGI,LOX IMVI melanoma,27 µM
same,TGI,OVCAR-5 ovarian,40 µM
same,TGI,NCI-H460 lung,48.9 µM
same,TGI,KM20L2 colon,42.2 µM
same,TGI,OVCAR-3 ovarian,30.9 µM
same,TGI,U251 CNS,32.7 µM
same,TGI,MALME-3M melanoma,5.2 µM
same,TGI,MDA-N,30.2 µM
same,TGI,K-562 leukemia,8.46 µM
same,TGI,DU-145 prostate,> 100 µM
same,TGI,M14 melanoma,24.7 µM
same,TGI,SW-620 colon,7.39 µM
same,TGI,SR leukemia,6.8 µM
same,TGI,SF-268 CNS,58.9 µM
same,TGI,LXFL 529 NSCLC,8.59 µM
same,TGI,NCI-H226 lung,60.8 µM
same,TGI,HCT-15 colon,28.2 µM
same,TGI,M19-MEL melanoma,34.1 µM
same,TGI,RXF 393 renal,29.2 µM
same,TGI,HCT-116 colon,22.8 µM
same,TGI,HL-60(TB) leukemia,12.9 µM
same,TGI,OVCAR-4 ovarian,10.7 µM
same,TGI,SNB-75 CNS,32 µM
